The text below walks through data of ChEMBL document CHEMBL3112395, “Synthesis and structure-activity relationship studies of N-terminal analogues of the antimicrobial peptide tridecaptin A(1)” (J Med Chem, 2014).

In brackets after ≈: the same amount, converted by molar mass.

Data set [1] relates to Salmonella enterica. The experiment in a line: Antibacterial activity against Salmonella enterica ATCC 13311 assessed as growth inhibition by broth dilution method. Format: functional.
For data set [2], the system named is Enterococcus faecalis. As to the kind of experiment: Antibacterial activity against Enterococcus faecalis ATCC 29212 assessed as growth inhibition by broth dilution method. Format: functional.
The subject of data set [3] is Enterococcus faecium. As to the kind of experiment: Antibacterial activity against Enterococcus faecium ATCC 19434 assessed as growth inhibition by broth dilution method. Format: functional.
For data set [4], the system named is Klebsiella pneumoniae. As to the kind of experiment: Antibacterial activity against Klebsiella pneumoniae ATCC 13883 assessed as growth inhibition by broth dilution method. The format is functional. (In general: Broth dilution looks for growth in wells or tubes with falling amounts of substance.)
Data set [5] deals with Escherichia coli. The experiment in a line: Antibacterial activity against Escherichia coli ATCC 25922 assessed as growth inhibition by broth dilution method. Format: functional.
Data set [6] concerns Klebsiella pneumoniae. The experiment in a line: Antibacterial activity against multi-drug resistant Klebsiella pneumoniae KpCG clinical isolate assessed as growth inhibition by broth dilution method. The format is functional.
In data set [7] the test system is Staphylococcus aureus. The experiment in a line: Antibacterial activity against Staphylococcus aureus ATCC 29213 assessed as growth inhibition by broth dilution method. The format is functional.
Data set [8] in a line: Cytotoxicity against HEK293 cells assessed as growth inhibition after 48 hrs by MTT assay. Particulars: human, read-out: MIC. Format: cell-based. On the technique in general: Formazan colour is commonly taken as a measure of viable cells.
Data set [9] can be described thus: Antibacterial activity against multi-drug resistant Clostridium difficile 630 assessed as growth inhibition by broth dilution method. The format is functional, Clostridioides difficile 630. Particulars: Clostridioides difficile.
The test system of data set [10] is Campylobacter jejuni. As to the kind of experiment: Antibacterial activity against Campylobacter jejuni NCTC 11168 assessed as growth inhibition by broth dilution method. The format is functional.
Data set [11] concerns Listeria monocytogenes. As to the kind of experiment: Antibacterial activity against Listeria monocytogenes ATCC […] assessed as growth inhibition by broth dilution method. Format: functional.
In data set [12] the test system is Acinetobacter baumannii. As to the kind of experiment: Antibacterial activity against Acinetobacter baumannii ATCC 19606 assessed as growth inhibition by broth dilution method. The format is functional.
Data set [13] concerns Escherichia coli. As to the kind of experiment: Antibacterial activity against Escherichia coli O157:H7 assessed as growth inhibition by broth dilution method. Format: functional.
In data set [14] the test system is Enterobacter cloacae. The experiment in a line: Antibacterial activity against multi-drug resistant Enterobacter cloacae 849 clinical isolate assessed as growth inhibition by broth dilution method. The format is functional.
Data set [15] can be described thus: Hemolytic activity in rabbit erythrocytes at 83 ug/mL after 30 mins relative to control. The format is ADME, cell-based, Oryctolagus cuniculus, Erythrocyte. Particulars: read-out: Activity.
Data set [16] has as its system Pseudomonas aeruginosa. The experiment in a line: Antibacterial activity against Pseudomonas aeruginosa ATCC 27853 assessed as growth inhibition by broth dilution method. Format: functional.

`CCCCCCCC(=O)N[C@@H](C(=O)N[C@H](CCN)C(=O)NCC(=O)N[C@H](CO)C(=O)N[C@H](Cc1c[nH]c2ccccc12)C(=O)N[C@@H](CO)C(=O)N[C@@H](CCN)C(=O)N[C@H](CCN)C(=O)N[C@@H](Cc1ccccc1)C(=O)N[C@@H](CCC(=O)O)C(=O)N[C@H](C(=O)N[C@@H](C(=O)N[C@@H](C)C(=O)O)[C@@H](C)CC)C(C)C)C(C)C`: the MIC in data set [1] stood at 6.25 µg/mL (≈ 4.11 µM); in [2], 100 µg/mL (≈ 65.8 µM); in data set [3], 50 µg/mL (≈ 32.9 µM); in [4], 3.13 µg/mL (≈ 2.06 µM); in data set [5], 3.13 µg/mL (≈ 2.06 µM); in data set [6], 2.33 µg/mL (≈ 1.53 µM). Moreover, the MIC in [7] stood at 100 µg/mL (≈ 65.8 µM); in data set [9], 12.7 µg/mL (≈ 8.35 µM); in data set [10] it was 0.78 µg/mL (≈ 0.513 µM); in data set [11] it was 25 µg/mL (≈ 16.4 µM); in data set [12], 12.5 µg/mL (≈ 8.22 µM); in data set [13] it was 0.43 µg/mL (≈ 0.283 µM). The MIC in data set [14] worked out at 0.43 µg/mL (≈ 0.283 µM); in [16], 25 µg/mL (≈ 16.4 µM). The MCC at 48 h in data set [8] came out at 100 µg/mL. Moreover, the hemolysis at 0.5 h, 83 ug/mL in [15] is 4.7%.

By MIC is commonly meant the smallest concentration in the dilution series that meets the test's criterion for growth inhibition.
